Test results taken from ChEMBL document CHEMBL3272007, “Antiarrhythmics. 2. Synthesis and antiarrhythmic activity of N-(piperidylalkyl)trifluoroethoxybenzamides” (1977).

Tested on: Mus musculus
Test: Antiarrhythmic activity in po dosed Swiss-Webster mouse assessed as protection against chloroform-induced ventricular fibrillation administered in 4% acacia
Type: functional
Conditions: Heart

| SMILES | ED50 [µmol/kg] |
| --- | --- |
| CCCCN(CC1CCCCN1)C(=O)c1cc(OCC(F)(F)F)ccc1OCC(F)(F)F (centres undefined) | 32 |
| CC[N+]1(C)CCCCC1CNC(=O)c1cc(OCC(F)(F)F)ccc1OCC(F)(F)F (centres undefined) | > 380 |
| O=C(NCC1CCC2CCCCC2N1)c1cc(OCC(F)(F)F)ccc1OCC(F)(F)F (centres undefined) | 27 |
| CCN(CC)CCNC(=O)c1ccc(N)cc1 [PROCAINAMIDE] | 1030 |
| O=C(NCC1CCCCN1)c1cccc(OCC(F)(F)F)c1OCC(F)(F)F (centres undefined) | 149 |
| CCN1CCCCC1CNC(=O)c1cc(OCC(F)(F)F)ccc1OCC(F)(F)F (centres undefined) | 102 |
| O=C(NCC1CCCCN1)c1cc(OCC(F)(F)F)ccc1OCC(F)(F)F (centres undefined) [FLECAINIDE ACETATE] | 48 |
| CN(CC1CCCCN1)C(=O)c1cc(OCC(F)(F)F)ccc1OCC(F)(F)F (centres undefined) | 24 |
| O=C(NCC1CCCCN1)c1c(OCC(F)(F)F)cccc1OCC(F)(F)F (centres undefined) | 271 |
| CCN1CCCC1CNC(=O)c1cc(OCC(F)(F)F)ccc1OCC(F)(F)F (centres undefined) | 70 |
| O=C(NCC1CCCCN1)c1ccc(OCC(F)(F)F)cc1 (centres undefined) | 190 |
| CCN(CC)CC(=O)Nc1c(C)cccc1C [LIDOCAINE] | 495 |
| C=C[C@H]1CN2CC[C@H]1C[C@@H]2[C@@H](O)c1ccnc2ccc(OC)cc12 [QUINIDINE] | 217 |
| O=C(NCC1NCCc2ccccc21)c1cc(OCC(F)(F)F)ccc1OCC(F)(F)F (centres undefined) | 380 |
| O=C(NCC1CCCNC1)c1cc(OCC(F)(F)F)ccc1OCC(F)(F)F (centres undefined) | 82 |
| O=C(NCC1CCCCN1)c1cccc(OCC(F)(F)F)c1 (centres undefined) | 76 |
| O=C(NC1CCNCC1)c1cc(OCC(F)(F)F)ccc1OCC(F)(F)F | 144 |
| CC1CCCC(CN(C)C(=O)c2cc(OCC(F)(F)F)ccc2OCC(F)(F)F)N1 (centres undefined) | 9 |
| O=C(NCC1CCCCN1)c1ccc(OCC(F)(F)F)c(OCC(F)(F)F)c1 (centres undefined) | 277 |
| CC(C)(C)N(CC1CCCCN1)C(=O)c1cc(OCC(F)(F)F)ccc1OCC(F)(F)F (centres undefined) | 17 |

| SMILES | ED50 [µmol/kg] |
| --- | --- |
| CCN(CC1CCCCN1)C(=O)c1cc(OCC(F)(F)F)ccc1OCC(F)(F)F (centres undefined) | < 2 |
| O=C(NCC1CCCCN1)c1cc(F)ccc1OCC(F)(F)F (centres undefined) | 270 |
| O=C(NCC1CCNCC1)c1cc(OCC(F)(F)F)ccc1OCC(F)(F)F | 149 |
| O=C(NCC1CCc2ccccc2N1)c1cc(OCC(F)(F)F)ccc1OCC(F)(F)F (centres undefined) | > 450 |
| CC1CCCC(CNC(=O)c2cc(OCC(F)(F)F)ccc2OCC(F)(F)F)N1 (centres undefined) | 22 |
| O=C(NCC1CCCCN1)c1c(OCC(F)(F)F)cc(OCC(F)(F)F)cc1OCC(F)(F)F (centres undefined) | 95 |
| C[N+]1(C)CCCCC1CNC(=O)c1cc(OCC(F)(F)F)ccc1OCC(F)(F)F (centres undefined) | > 395 |
| O=C(c1cc(OCC(F)(F)F)ccc1OCC(F)(F)F)N1CCN2CCCCC2C1 (centres undefined) | > 510 |
| Cc1ccc(OCC(F)(F)F)c(C(=O)NCC2CCCCN2)c1 (centres undefined) | > 600 |
| CC(NC(=O)c1cc(OCC(F)(F)F)ccc1OCC(F)(F)F)C1CCCCN1 (centres undefined) | 19 |
| O=C(NC1CCCNC1)c1cc(OCC(F)(F)F)ccc1OCC(F)(F)F (centres undefined) | 57 |
| O=C(NCC1CCCCN1)c1cc(Cl)ccc1OCC(F)(F)F (centres undefined) | 230 |
| CN1CCCCC1CNC(=O)c1cc(OCC(F)(F)F)ccc1OCC(F)(F)F (centres undefined) | 44 |
| O=CN1CCCCC1CNC(=O)c1cc(OCC(F)(F)F)ccc1OCC(F)(F)F (centres undefined) | > 510 |
| CCN(CC1CCCN1C)C(=O)c1cc(OCC(F)(F)F)ccc1OCC(F)(F)F (centres undefined) | 29 |
| O=C(NCC1CCCCN1)c1ccccc1OCC(F)(F)F (centres undefined) | 283 |
| O=C(NCC1CCCCN1)c1ccc(OCC(F)(F)F)cc1OCC(F)(F)F (centres undefined) | 244 |
| O=C(NCC1CCCCN1)c1cc(OCC(F)(F)F)cc(OCC(F)(F)F)c1 (centres undefined) | 388 |
| O=C(c1cc(OCC(F)(F)F)ccc1OCC(F)(F)F)N(CC1CCCCN1)C1CCCCC1 (centres undefined) | 36 |
